# “Also recorded” adds a separate entry of the source. Where two headings read alike, the source gives them in different places.
# Columns and labels:
# [1] = biological target: T1, olfactory receptor OR240 (also OR7D4) (Homo sapiens, UniProt Q8NG98); assay: Calcium imaging of HBO cells transiently transfected with OR7D4; assay type: cell-based; details: HBO cells transfected with OR7D4/OR240 plus chaperone DNA (RTP1S and M3); 30 or 100 micromolar
# T1 construct: expressed in transfected cells; host or cells: cultured human taste papillae (HBO) cells, Lipofectamine 2000, transient
# T1 sequence (Q8NG98 1-312): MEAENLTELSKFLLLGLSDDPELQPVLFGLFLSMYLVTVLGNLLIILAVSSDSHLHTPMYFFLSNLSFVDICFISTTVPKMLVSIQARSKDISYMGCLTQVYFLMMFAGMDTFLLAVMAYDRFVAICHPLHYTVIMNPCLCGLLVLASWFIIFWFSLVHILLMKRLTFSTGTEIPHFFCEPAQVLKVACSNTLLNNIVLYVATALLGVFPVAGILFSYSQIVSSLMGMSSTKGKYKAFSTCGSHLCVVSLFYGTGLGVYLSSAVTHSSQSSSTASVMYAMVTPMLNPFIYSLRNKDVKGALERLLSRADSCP
# [2] = test system: cultured fungiform taste papillae (HBO) cells obtained from human tongue; assay: Calcium imaging of cultured human fungiform taste papillae (HBO) cells; assay type: cell-based; details: fura-2 calcium imaging, odorants at optimal concentration 100 uM
# Procedure: The human fungiform papillae cells were cultured according to published protocols (Ozdener et al., Chem Senses. 2006 March; 31(3): 279-90; Ozdener et al., In Vitro Cellular & Developmental Biology—Animal. September 2011, 47(8): 513-14; each of which is incorporated herein by reference). Briefly, human fungiform taste papillae were removed and immediately placed into an isolation solution [26 mM NaHCO3, 2.5 mM NaH2PO4, 20 mM glucose, 65 mM NaCl, 20 mM KCl, and 1 mM ethylenediaminetetraacetic acid (EDTA)] followed by enzymatic digestion with pronase E and elastase. Digested fungiform papillae were then gently minced with a surgical razor and seeded on collagen type-1 coated coverslips and incubated at 36° C. in a humidified environment containing 5% CO2. The human fungiform taste papillae were cultured in Iscove's Modified Dulbecco's medium containing 10% fetal bovine serum, 1:5 ratio of MCDB 153, and a triple cocktail of antibiotics (100 U/mL/100 μg/mL, penicillin/streptomycin, and 0.5 μg/mL fungizone). Human fungiform taste papillae cells have been maintained in culture for a period of more than 1 year without loss of viability and with retention of the molecular and biochemical properties of acutely isolated taste cells.
# (§1) Changes in intracellular calcium levels in response to stimuli were measured. Cultured human fungiform and mice taste papillae cells were seeded on 15 mm coverslips. Cells were loaded with […] Fura-2 AM (Molecular Probes Inc.) in 10 mg/mL Pluronic® F127 (Molecular Probes Inc.) in modified Ringer solution for 1 hour at 36° C. Individual odors, bitter mixture [phenylthiocarbamide (PTC, 2 mM) and Denatonium (2 mM), Salicin (5 mM)]; and Mix A [cAMP-producing odors in rat biochemical assays (Breer and Boekhoff, 1991, Chem. Senses, 16(1): 19-29, and Restrepo et al., 1993, J. Gen. Physiol., 102:907-924); both of which are incorporated herein by reference] (100 mM): hedione, geraniol, phenylethyl alcohol, citralva, citronellal, and eugenol,]; and Mix B [IP3-producing odors in rat biochemical assays (Breer and Boekhoff, 1991 and Restrepo et al 1993)] (100 mM): lyral, lilial, triethylamine, ethyl vanillin, isovaleric acid, and phenylethyl amine]) was diluted in Ringer, which was prepared with pH adjusted to 7.2 and osmolality adjusted to 300 mmol/kg. A coverslip was placed into a p4 chamber system with the delivery and waste pipes attached to the chamber. This allowed for a stable and constant flow of liquid in and out of the chamber. The cells were visualized with an inverted florescence microscope using an excitation wavelength of 380 nm. Stimulus selection and delivery, focusing, and image acquisition were done using PTI software. Following image acquisition, regions of interest (ROIs) on the cells along with a background control region were selected to be measured for fluorescence ratios and intensity values. Cultured taste papillae cells were first washed for 1-3 min with Ringer, and then stimuli delivery was initiated. Each stimulus was delivered for 30 sec-1 min followed by an approximately 2 min wash out period with Ringer. Ratio data for the cells were subsequently analyzed on Excel to determine which cells had responded with a significant change in intracellular calcium. After calcium imaging, coverslips were fixed with 4% PFA for 10 min and washed 3× with PBS.
# [3] = test system: immortalized human fungiform taste papillae (Ulduz) cells; assay: Odor response of immortalized human fungiform taste papillae (Ulduz) cells; assay type: cell-based
# Procedure: as §1
# In a similar manner, immortalized human fungiform taste papillae (Ulduz) cells, responded to receptor specific odors, heptaldehyde, acetophenone, methyl cinnamon, eugenol and lyral.
# [4] = test system: cultured taste papillae cells obtained from M129 mice; assay: Calcium imaging of cultured wild mouse (m129) taste papillae cells; assay type: cell-based; details: fura-2 calcium imaging; odorants at optimal concentration 100 uM; wild (m129) mouse taste cell cultures
# Procedure: (§2) Circumvallate and foliate papillae obtained from wild (m129), I7, M71 and Eugenol transgenic mice were isolated according to previously published procedure (Ozdener et al., 2006, cited above). Briefly, mouse taste papillae were removed by injecting the mixture of enzyme (pronase, 1 mg/ml Sigma and elastase 1 mg/ml Sigma) and immediately placed into an isolation solution followed by enzymatic digestion. Digested taste papillae tissue were then gently minced with a surgical razor and seeded on collagen type-1 coated coverslips and incubated at 36° C. in a humidified environment containing 5% CO2.
# as §1, with “This allowed for a stable and constant flow of liquid in and out of the chamber. The cells were visualized with an inverted florescence microscope using an excitation wavelength of 380 nm. Stimulus selection and delivery, focusing, and image acquisition were done using PTI software.” left out, “Cultured taste papillae cells were first washed for 1-3 min with Ringer, and then stimuli delivery was initiated. Each stimulus was delivered for 30 sec-1 min followed by an approximately 2 min wash out period with Ringer.” left out, “After calcium imaging, coverslips were fixed with 4% PFA for 10 min and washed 3× with PBS.” left out
# [5] = test system: cultured taste papillae cells obtained from mOR-EG-GFP ("mEUG") mice; assay: Calcium imaging of cultured taste papillae cells from mOR-EG-GFP mice; assay type: cell-based; details: fura-2 calcium imaging; odorants at optimal concentration 100 uM; mOR-EG-GFP mouse taste cell cultures
# Procedure: as §2
# (§3) Changes in intracellular calcium levels in response to stimuli were measured. Cultured human fungiform and mice taste papillae cells were seeded on 15 mm coverslips. Cells were loaded with […] Fura-2 AM (Molecular Probes Inc.) in 10 mg/mL Pluronic® F127 (Molecular Probes Inc.) in modified Ringer solution for 1 hour at 36° C. […] Following image acquisition, regions of interest (ROIs) on the cells along with a background control region were selected to be measured for fluorescence ratios and intensity values. […] Ratio data for the cells were subsequently analyzed on Excel to determine which cells had responded with a significant change in intracellular calcium. […]
# [6] = test system: cultured taste papillae cells obtained from mOR-M71-GFP ("M71") mice; assay: Calcium imaging of cultured taste papillae cells from mOR-M71-GFP mice; assay type: cell-based; details: fura-2 calcium imaging; odorants at optimal concentration 100 uM; mOR-M71-GFP mouse taste cell cultures
# Procedure: as §2, §3
# [7] = test system: olfactory receptor ORS6 (also Olfr544); assay: Calcium imaging of HBO cells transiently transfected with ORS6; assay type: cell-based, mouse; details: HBO cells transfected with ORS6 plus chaperone DNA (RTP1S and M3); 30 or 100 micromolar
Structure (SMILES),response to stimulus (change in intracellular calcium [Ca2+]i) [2],response to receptor specific odor [3],response to stimulus (change in intracellular calcium) [4],other results
C[C@@]12CCC[C@H]1[C@@H]1CC[C@H]3CC(=O)CC[C@]3(C)[C@H]1CC2 [Androstanone],–,–,–,calcium response to receptor specific odor [1]: response occurred
O=c1ccc2ccccc2o1 [coumarin],sensitive,–,–,–
COC(=O)/C=C/c1ccccc1 [methyl cinnamon],–,respond,–,–
C=CCc1ccc(O)c(OC)c1 [eugenol],sensitive,respond,sensitive,response to stimulus (change in intracellular calcium) [5]: respond; also recorded: responsive
CCCCCCC=O [heptanal],sensitive,–,–,response to receptor specific odor ([3]; listed as heptaldehyde): respond
CCCCCC(=O)O [hexanoic acid],sensitive,–,–,–
CC(=O)c1ccccc1 [acetophenone],sensitive,respond,responded; also recorded: sensitive,response to stimulus (change in intracellular calcium) [6]: exhibited a response; also recorded: respond; also recorded: responsive
O=Cc1ccccc1 [benzaldehyde],–,–,responded; also recorded: sensitive,response to stimulus (change in intracellular calcium) [6]: respond
O=C(O)CCCCCCCC(=O)O [Nonanedionic acid],–,–,–,calcium response to receptor specific odor [7]: response occurred
CC(C)(O)CCCC1=CCC(C=O)CC1 (stereo not shown) [lyral],sensitive,respond,–,–
